Where a name gives a salt, the structure may show the parent alone.
Assays:
[1] = tested on: A-478; test: MTT assay, 6-cell line test, kidney A-478; format: cell-based, human; conditions: A-478 cells
Description: (§1) Cells were planted in 96 well flat bottom plates with low evaporation lids. Three cell lines per plate were seeded in 0.2 ml medium per well. Each cell line was planted at the optimum concentration for its particular growth rate: H-29 and A-549, 5000 c/ml, MCF-7, 15000 c/well, KB and similar cells, 2500 c/ml, P388 and similar cells, 15000 c/ml. Products were tested at various dilutions (at least ten) to determine the ED 50.

[2] = tested on: PC-3; test: MTT assay, 6-cell line test, prostate PC-3; format: cell-based, human; conditions: PC-3 cells
Description: as §1

[3] = tested on: PACA-2; test: MTT assay, 6-cell line test, pancreatic PACA-2; format: cell-based, human; conditions: PACA-2 cells
Description: as §1

[4] = tested on: A-549; test: MTT assay, 6-cell line test, lung A-549; format: cell-based, human; conditions: A-549 cells
Description: as §1

[5] = tested on: MCF-7; test: MTT assay, 6-cell line test, breast MCF-7; format: cell-based, human; conditions: MCF-7 cells
Description: as §1

[6] = tested on: HT-29; test: MTT assay, 6-cell line test, colon HT-29; format: cell-based, human; conditions: HT-29 cells
Description: as §1

[7] = tested on: DMBA-induced mammary tumors; test: DMBA-induced mammary carcinogenesis in rats; format: in vivo, Female Sprague-Dawley rats; conditions: for Rat with Tumors, percentage in parentheses (reduction versus Control Diet + DMBA, not explained) / Tumors Per Rat, percentage in parentheses (reduction versus Control Diet + DMBA, not explained): Sulforaphane 50 mg/kg by gavage + DMBA; for Rat with Tumors (%) / Tumors Per Rat: Sulforaphane 50 mg/kg by gavage once a day, days 46-51 of age, + DMBA
Description: Sulforaphane was orally administered by gavage (50 mg / kg body weight in 0.1 ml corn oil) to rats once a day at 46th, 47th, 48th, 49th, 50th and 51st days of their age. […] Palpable mammary tumors were counted every week after DMBA administration.

[8] = tested on: carrageenan-induced pedal edema; conditions: rats, cited from earlier work

Row | Compound | Kidney A-478 ED 50 [1] [µg/mL] | Prostrate PC-3 ED 50 [2] [µg/mL] | Pancreatic PACA-2 ED 50 [3] [µg/mL] | Lung A-549 ED 50 [4] [µg/mL] | Breast MCF-7 ED 50 [5] [µg/mL] | Colon HT-29 ED 50 [6] [µg/mL] | other results
1 | OC[C@H]1O[C@@H](Oc2cc(O)cc(/C=C/c3ccc(O)cc3)c2)[C@H](O)[C@@H](O)[C@@H]1O (relative stereo) [Fifth Product, 90% Piceid, 3,4′5-trans-trihydroxystilbene-3-β-mono-D-glucoside] | 34.95 | 80.58 | 40.98 | 35.77 | 100 | 79.20 | –
2 | Oc1ccc(/C=C/c2cc(O)cc(O)c2)cc1 [3,4′,5-trihydroxy-trans-stilbene] | 0.74 | 100 | 3.55 | 0.326 | 4.23 | 1.66 | –
3 | COc1cccc2c1C(=O)c1c(O)c3c(c(O)c1C2=O)C[C@@](O)(C(=O)CO)C[C@@H]3O[C@H]1C[C@H](N)[C@H](O)[C@H](C)O1 [Doxorubicin HCL] | 0.00359 | 0.0281 | 0.00522 | 0.00316 | 0.107 | 0.022 | –
4 | C[S+]([O-])CCCCN=C=S (stereo not drawn) [Sulforaphane] | – | – | – | – | – | – | Rat with Tumors, percentage in parentheses (reduction versus Control Diet + DMBA, not explained) ([7]; 9 weeks after DMBA): (100%); Tumors Per Rat, percentage in parentheses (reduction versus Control Diet + DMBA, not explained) ([7]; 9 weeks after DMBA): (100%); Rat with Tumors (%) ([7]; 9 weeks after DMBA): 0%; Tumors Per Rat ([7]; 9 weeks after DMBA): 0; Rat with Tumors, percentage in parentheses (reduction versus Control Diet + DMBA, not explained) ([7]; 14 weeks after DMBA): (32%); Tumors Per Rat, percentage in parentheses (reduction versus Control Diet + DMBA, not explained) ([7]; 14 weeks after DMBA): (43%); Rat with Tumors (%) ([7]; 14 weeks after DMBA): 13%; Tumors Per Rat ([7]; 14 weeks after DMBA): 0.13 ± 0.08; Rat with Tumors, percentage in parentheses (reduction versus Control Diet + DMBA, not explained) ([7]; 22 weeks after DMBA): (38%); Tumors Per Rat, percentage in parentheses (reduction versus Control Diet + DMBA, not explained) ([7]; 22 weeks after DMBA): (10%); Rat with Tumors (%) ([7]; 22 weeks after DMBA): 31%; Tumors Per Rat ([7]; 22 weeks after DMBA): 0.36 ± 0.33
5 | Oc1ccc(C=Cc2cc(O)cc(O)c2)cc1 [resveratrol, 3,4′,5-trihydroxystilbene] | – | – | – | – | – | – | Pedal edema, acute phase ([8]; acute phase (3 to 24 hours)): significantly reduced pedal edema; Pedal edema, chronic phase ([8]; chronic phase (24 to 144 hours)): significantly reduced pedal edema; Edema-suppressing activity compared with reference drugs ([8]; versus phenylbutazone and indomethacin): greater than that of phenylbutazone and similar to that of indomethacin
